# Target: Nav1.8 (SCN10A) (Homo sapiens, UniProt Q9Y5Y9)
# Experiment: whole-cell voltage clamp, transfected ND7/[…] cells
# Format: cell-based
# Nav1.8 (SCN10A), sequence (Q9Y5Y9 whole entry): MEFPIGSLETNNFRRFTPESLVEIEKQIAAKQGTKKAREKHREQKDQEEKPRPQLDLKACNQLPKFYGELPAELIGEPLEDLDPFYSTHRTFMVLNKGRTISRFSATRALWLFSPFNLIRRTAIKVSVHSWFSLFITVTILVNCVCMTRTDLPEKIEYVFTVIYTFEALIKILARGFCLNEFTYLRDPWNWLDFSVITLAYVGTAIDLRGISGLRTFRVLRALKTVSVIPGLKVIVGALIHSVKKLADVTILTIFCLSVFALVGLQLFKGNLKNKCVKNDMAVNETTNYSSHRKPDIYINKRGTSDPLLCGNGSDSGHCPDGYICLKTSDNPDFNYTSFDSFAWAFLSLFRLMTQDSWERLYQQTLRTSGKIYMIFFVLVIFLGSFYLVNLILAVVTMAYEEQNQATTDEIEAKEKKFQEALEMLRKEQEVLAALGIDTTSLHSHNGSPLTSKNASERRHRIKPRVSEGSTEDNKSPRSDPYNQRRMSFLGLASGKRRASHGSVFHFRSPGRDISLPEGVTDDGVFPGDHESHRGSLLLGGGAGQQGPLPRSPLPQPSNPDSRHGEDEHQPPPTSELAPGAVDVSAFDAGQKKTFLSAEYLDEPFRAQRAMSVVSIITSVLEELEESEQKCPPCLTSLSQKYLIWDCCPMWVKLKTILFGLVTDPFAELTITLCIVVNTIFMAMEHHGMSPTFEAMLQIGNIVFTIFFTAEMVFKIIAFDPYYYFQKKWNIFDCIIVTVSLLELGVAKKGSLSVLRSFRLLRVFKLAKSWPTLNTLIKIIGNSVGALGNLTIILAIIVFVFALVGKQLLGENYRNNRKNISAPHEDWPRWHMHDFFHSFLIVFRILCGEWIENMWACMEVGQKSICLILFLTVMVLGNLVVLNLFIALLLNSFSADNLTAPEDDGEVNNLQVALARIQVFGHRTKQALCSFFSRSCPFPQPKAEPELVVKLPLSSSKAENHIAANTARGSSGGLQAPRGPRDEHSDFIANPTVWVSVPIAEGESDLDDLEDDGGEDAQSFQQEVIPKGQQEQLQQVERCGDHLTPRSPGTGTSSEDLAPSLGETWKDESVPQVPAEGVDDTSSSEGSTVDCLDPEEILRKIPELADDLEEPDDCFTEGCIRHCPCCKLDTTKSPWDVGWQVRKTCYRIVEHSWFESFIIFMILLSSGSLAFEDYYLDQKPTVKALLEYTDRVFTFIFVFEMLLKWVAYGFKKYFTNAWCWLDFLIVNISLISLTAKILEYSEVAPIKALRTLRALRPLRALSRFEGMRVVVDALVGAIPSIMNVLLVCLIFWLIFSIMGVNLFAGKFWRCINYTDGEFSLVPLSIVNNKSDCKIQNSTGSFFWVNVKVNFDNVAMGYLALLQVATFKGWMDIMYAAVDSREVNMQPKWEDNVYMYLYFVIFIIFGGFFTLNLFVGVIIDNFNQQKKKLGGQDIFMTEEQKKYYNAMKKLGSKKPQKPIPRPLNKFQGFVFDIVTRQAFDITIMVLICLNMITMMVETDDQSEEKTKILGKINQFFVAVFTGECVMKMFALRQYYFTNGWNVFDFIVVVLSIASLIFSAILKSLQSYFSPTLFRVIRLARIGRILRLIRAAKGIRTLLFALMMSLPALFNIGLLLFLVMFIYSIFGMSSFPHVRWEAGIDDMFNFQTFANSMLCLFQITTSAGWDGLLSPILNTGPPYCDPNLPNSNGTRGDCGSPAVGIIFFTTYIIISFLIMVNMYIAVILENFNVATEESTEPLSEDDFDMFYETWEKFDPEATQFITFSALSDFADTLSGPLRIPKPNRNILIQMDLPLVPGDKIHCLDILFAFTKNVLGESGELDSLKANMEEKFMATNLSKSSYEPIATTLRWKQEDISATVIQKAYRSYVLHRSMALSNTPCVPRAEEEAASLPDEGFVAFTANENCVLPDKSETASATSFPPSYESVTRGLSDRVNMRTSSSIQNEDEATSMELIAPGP
compound,measurement,value
COc1cc(NC(=O)c2ccc(-c3ccc(Cl)cc3)o2)cc(OC)c1 [A-803467],IC50,~0.01 µM
